Experiment: MALDI-TOF screening of Ni^2+ dependent hydrolysis in a combinatorial peptide library
Format: physicochemical
Conditions: Ni^2+ 2 mM, pH 8.2, 10 mM Tris, score=24/tm
Outline: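 Ni2+ 2 mM, peptide pool 1 mM (total), 10 mM Tris pH 8.2; 37 °C and 45 °C in parallel; MS aliquots at 2/4/6/8 h; products detected visually. X: all proteinogenic residues except Asp, Glu, Cys; Z: all except Cys.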

[1] = CH3CO-Gly-Ala-Thr-X-His-Z-Lys-Phe-Leu-NH2 library, 37° C.
[2] = CH3CO-Gly-Ala-Thr-X-His-Z-Lys-Phe-Leu-NH2 library, 45° C.
[3] = CH3CO-Gly-Ala-Ser-X-His-Z-Lys-Phe-Leu-NH2 library, 37° C.
[4] = CH3CO-Gly-Ala-Ser-X-His-Z-Lys-Phe-Leu-NH2 library, 45° C.

| Substance | hydrolysis score from MALDI-TOF screening [1] | hydrolysis score from MALDI-TOF screening [2] | hydrolysis score from MALDI-TOF screening [3] | hydrolysis score from MALDI-TOF screening [4] |
| --- | --- | --- | --- | --- |
| Ac-GATAHDKFL-NH2 [TAHD] | 0 (a score of 0 if no trace of the product of hydrolysis was seen after 8 hours of incubation) | 0 (a score of 0 if no trace of the product of hydrolysis was seen after 8 hours of incubation) | – | – |
| Ac-GASYHQKFL-NH2 [SYHQ] | – | – | 0 (a score of 0 if no trace of the product of hydrolysis was seen after 8 hours of incubation) | 0 (a score of 0 if no trace of the product of hydrolysis was seen after 8 hours of incubation) |
| Ac-GASQHGKFL-NH2 [SQHG] | – | – | 0 (a score of 0 if no trace of the product of hydrolysis was seen after 8 hours of incubation) | 0 (a score of 0 if no trace of the product of hydrolysis was seen after 8 hours of incubation) |
| Ac-GATYHGKFL-NH2 [TYHG] | 0 (a score of 0 if no trace of the product of hydrolysis was seen after 8 hours of incubation) | 0 (a score of 0 if no trace of the product of hydrolysis was seen after 8 hours of incubation) | – | – |
| Ac-GATTHWKFL-NH2 [TTHW] | 0 (a score of 0 if no trace of the product of hydrolysis was seen after 8 hours of incubation) | 0 (a score of 0 if no trace of the product of hydrolysis was seen after 8 hours of incubation) | – | – |
| Ac-GASNHNKFL-NH2 [SNHN] | – | – | 0 (a score of 0 if no trace of the product of hydrolysis was seen after 8 hours of incubation) | 0 (a score of 0 if no trace of the product of hydrolysis was seen after 8 hours of incubation) |
| Ac-GATVHSKFL-NH2 [TVHS] | 0 (a score of 0 if no trace of the product of hydrolysis was seen after 8 hours of incubation) | 0 (a score of 0 if no trace of the product of hydrolysis was seen after 8 hours of incubation) | – | – |
| Ac-GATSHIKFL-NH2 [TSHI] | 0 (a score of 0 if no trace of the product of hydrolysis was seen after 8 hours of incubation) | 0 (a score of 0 if no trace of the product of hydrolysis was seen after 8 hours of incubation) | – | – |
| Ac-GATFHSKFL-NH2 [TFHS] | 0 (a score of 0 if no trace of the product of hydrolysis was seen after 8 hours of incubation) | 0 (a score of 0 if no trace of the product of hydrolysis was seen after 8 hours of incubation) | – | – |
| Ac-GATLHLKFL-NH2 [TLHL] | 0 (a score of 0 if no trace of the product of hydrolysis was seen after 8 hours of incubation) | 0 (a score of 0 if no trace of the product of hydrolysis was seen after 8 hours of incubation) | – | – |
| Ac-GATSHHKFL-NH2 [TSHH] | 0 (a score of 0 if no trace of the product of hydrolysis was seen after 8 hours of incubation) | 0 (a score of 0 if no trace of the product of hydrolysis was seen after 8 hours of incubation) | – | – |
| Ac-GATLHIKFL-NH2 [TLHI] | 0 (a score of 0 if no trace of the product of hydrolysis was seen after 8 hours of incubation) | 0 (a score of 0 if no trace of the product of hydrolysis was seen after 8 hours of incubation) | – | – |
| Ac-GASIHFKFL-NH2 [SIHF] | – | – | 0 (a score of 0 if no trace of the product of hydrolysis was seen after 8 hours of incubation) | 0 (a score of 0 if no trace of the product of hydrolysis was seen after 8 hours of incubation) |
| Ac-GASLHVKFL-NH2 [SLHV] | – | – | 0 (a score of 0 if no trace of the product of hydrolysis was seen after 8 hours of incubation) | 3 (a score of 3 for detection at 8 hours) |
| Ac-GATLHEKFL-NH2 [TLHE] | 0 (a score of 0 if no trace of the product of hydrolysis was seen after 8 hours of incubation) | 0 (a score of 0 if no trace of the product of hydrolysis was seen after 8 hours of incubation) | – | – |
| Ac-GASYHAKFL-NH2 [SYHA] | – | – | 0 (a score of 0 if no trace of the product of hydrolysis was seen after 8 hours of incubation) | 0 (a score of 0 if no trace of the product of hydrolysis was seen after 8 hours of incubation) |
| Ac-GASVHHKFL-NH2 [SVHH] | – | – | 3 (a score of 3 for detection at 8 hours) | 3 (a score of 3 for detection at 8 hours) |
| Ac-GASQHLKFL-NH2 [SQHL] | – | – | 6 (a score of 6 for detection at 4 hours) | 6 (a score of 6 for detection at 4 hours) |
| Ac-GATGHWKFL-NH2 [TGHW] | 0 (a score of 0 if no trace of the product of hydrolysis was seen after 8 hours of incubation) | 0 (a score of 0 if no trace of the product of hydrolysis was seen after 8 hours of incubation) | – | – |

| Substance | hydrolysis score from MALDI-TOF screening [1] | hydrolysis score from MALDI-TOF screening [2] | hydrolysis score from MALDI-TOF screening [3] | hydrolysis score from MALDI-TOF screening [4] |
| --- | --- | --- | --- | --- |
| Ac-GASKHKKFL-NH2 [SKHK] | – | – | 6 (a score of 6 for detection at 4 hours) | 12 (a score of 12, if it was seen to be partially hydrolysed at 2 hours) |
| Ac-GATLHGKFL-NH2 [TLHG] | 0 (a score of 0 if no trace of the product of hydrolysis was seen after 8 hours of incubation) | 0 (a score of 0 if no trace of the product of hydrolysis was seen after 8 hours of incubation) | – | – |
| Ac-GATIHDKFL-NH2 [TIHD] | 0 (a score of 0 if no trace of the product of hydrolysis was seen after 8 hours of incubation) | 0 (a score of 0 if no trace of the product of hydrolysis was seen after 8 hours of incubation) | – | – |
| Ac-GATSHKKFL-NH2 [TSHK] | 0 (a score of 0 if no trace of the product of hydrolysis was seen after 8 hours of incubation) | 0 (a score of 0 if no trace of the product of hydrolysis was seen after 8 hours of incubation) | – | – |
| Ac-GASNHGKFL-NH2 [SNHG] | – | – | 0 (a score of 0 if no trace of the product of hydrolysis was seen after 8 hours of incubation) | 0 (a score of 0 if no trace of the product of hydrolysis was seen after 8 hours of incubation) |
| Ac-GATNHFKFL-NH2 [TNHF] | 0 (a score of 0 if no trace of the product of hydrolysis was seen after 8 hours of incubation) | 0 (a score of 0 if no trace of the product of hydrolysis was seen after 8 hours of incubation) | – | – |
| Ac-GASPHMKFL-NH2 [SPHM] | – | – | 0 (a score of 0 if no trace of the product of hydrolysis was seen after 8 hours of incubation) | 0 (a score of 0 if no trace of the product of hydrolysis was seen after 8 hours of incubation) |
| Ac-GATGHEKFL-NH2 [TGHE] | 0 (a score of 0 if no trace of the product of hydrolysis was seen after 8 hours of incubation) | 0 (a score of 0 if no trace of the product of hydrolysis was seen after 8 hours of incubation) | – | – |
| Ac-GASMHEKFL-NH2 [SMHE] | – | – | 0 (a score of 0 if no trace of the product of hydrolysis was seen after 8 hours of incubation) | 0 (a score of 0 if no trace of the product of hydrolysis was seen after 8 hours of incubation) |
| Ac-GATPHTKFL-NH2 [TPHT] | – | 0 (a score of 0 if no trace of the product of hydrolysis was seen after 8 hours of incubation) | – | – |
| Ac-GASWHMKFL-NH2 [SWHM] | – | – | 0 (a score of 0 if no trace of the product of hydrolysis was seen after 8 hours of incubation) | 3 (a score of 3 for detection at 8 hours) |
| Ac-GASAHWKFL-NH2 [SAHW] | – | – | 4 (a score of 4 for detection at 6 hours) | 6 (a score of 6 for detection at 4 hours) |
| Ac-GASGHNKFL-NH2 [SGHN] | – | – | 0 (a score of 0 if no trace of the product of hydrolysis was seen after 8 hours of incubation) | 0 (a score of 0 if no trace of the product of hydrolysis was seen after 8 hours of incubation) |
| Ac-GATLHPKFL-NH2 [TLHP] | 0 (a score of 0 if no trace of the product of hydrolysis was seen after 8 hours of incubation) | 0 (a score of 0 if no trace of the product of hydrolysis was seen after 8 hours of incubation) | – | – |
| Ac-GASQHSKFL-NH2 [SQHS] | – | – | 0 (a score of 0 if no trace of the product of hydrolysis was seen after 8 hours of incubation) | 0 (a score of 0 if no trace of the product of hydrolysis was seen after 8 hours of incubation) |
| Ac-GASLHFKFL-NH2 [SLHF] | – | – | 0 (a score of 0 if no trace of the product of hydrolysis was seen after 8 hours of incubation) | 3 (a score of 3 for detection at 8 hours) |
| Ac-GASRHYKFL-NH2 [SRHY] | – | – | 4 (a score of 4 for detection at 6 hours) | 6 (a score of 6 for detection at 4 hours) |
| Ac-GASLHDKFL-NH2 [SLHD] | – | – | 0 (a score of 0 if no trace of the product of hydrolysis was seen after 8 hours of incubation) | 0 (a score of 0 if no trace of the product of hydrolysis was seen after 8 hours of incubation) |
| Ac-GASTHKKFL-NH2 [STHK] | – | – | 3 (a score of 3 for detection at 8 hours) | 6 (a score of 6 for detection at 4 hours) |

— US8969516B2, “Method of hydrolysis of peptide bond” (priority 2006, dated 2015)
